Patent publication US20200163984A1, “USE OF ISOVALERYL SPIRAMYCIN I, II AND/OR III IN MANUFACTURING MEDICAMENT FOR TREATING AND/OR PREVENTING TUMOR, AND MEDICAMENT” (SHENYANG FUYANG PHARMACEUTICAL TECHNOLOGY CO., LTD., priority 2017, published 2020)

What was measured:
[1] = test system: transplanted tumor of mouse H22 liver cancer; assay: Transplanted tumor of mouse H22 liver cancer; conditions: for Tumor Volume (mm3) (d30): d 30; for Body Weight (g) (d1) / Body Weight (g) (d 7): mouse, in vivo
Protocol: The H22 cell strains cryopreserved in liquid nitrogen were resuscitated in Kunming mice. After 3 generations, the ascites of Kunming mice were taken and placed in a 50 ml centrifuge tube in which 10 ml of 0.9% normal saline was added, and then centrifuging was performed at 1000 rpm for 5 min at room temperature, and the obtained supernatant was removed. Then 10 ml of 0.9% normal saline was added to the tube to blow and mix well, and then the mixture was diluted to 5×10^6 live cells/ml with normal saline after counting. The tube was stored in ice water, and 75% ethanol was used to disinfect the skin under the right armpits of the mice. Each Kunming mouse was soon inoculated subcutaneously with 0.2 ml of the cells at the armpit of the right forelimb.
In the H22 liver cancer model, the mice inoculated with the tumor were randomly divided into groups with 10 mice in each group on the next day of inoculation. The groups included: a model control group, a positive drug cyclophosphamide control group (CTX, 26 mg/kg), isovaleryl spiramycin I groups with doses of 13, 26 and 52 mg/kg; isovaleryl spiramycin II groups with doses of 13, 26 and 52 mg/kg; isovaleryl spiramycin III groups with doses of 13, 26 and 52 mg/kg. Each group was continuously administered intragastrically for 7 days with a dose of 20 ml/kg.
The tumor-bearing mice were weighed and sacrificed the next day after the last administration. The subcutaneous tumors were dissected and weighed. The average tumor weight of each group is calculated, and the tumor inhibition rate is calculated.
Tumor inhibition rate=(1−T/C)×100%
T: average tumor weight of the drug-administered group; C: average tumor weight of the blank control group.

[2] = test system: transplanted tumor of HT-29 cells; assay: HT-29 transplanted tumor in nude mice; conditions: for Inhibition Rate (%) / Tumor Weight: HT-29 nude mice; for Tumor Volume (mm3) (d30): d 30
Protocol: (§1) Then cell concentration was adjusted to 1×10^7/ml with matrigel, then each nude mouse was inoculated subcutaneously with 0.2 ml of cells at its right armpit and recorded as the first day of inoculation. When the tumor grows to be greater than or equal to 100 mm^3, the mice were randomly divided into 11 groups with 6 mice in each group: isovaleryl spiramycin I groups with doses of 25, 50 and 100 mg/kg, isovaleryl spiramycin II groups with doses of 25, 50 and 100 mg/kg, and isovaleryl spiramycin III groups with doses of 25, 50 and 100 mg/kg. Each group was continuously administered intragastrically for 30 days with a dose of 20 ml/kg. The mice were sacrificed the next day after drug withdrawal and the indicators were tested. The long diameter and short diameter of the tumor, and the body weight of each mouse were recorded every 3 days from drug administration to nude mouse sacrifice.
(§2) The body weight of the nude mice and the long diameter (a) and short diameter (b) of the transplanted tumor were measured every 3 days, and the tumor volume (v), relative tumor volume (RTV) and relative tumor proliferation rate (T/C) are calculated respectively according to the following formulas, wherein V=a×b^2/2; RTV=V/V0 (V0 is the tumor volume before administration, V is the tumor volume before sacrifice), and T/C (%)=treatment group RTV/model control group RTV×100%.
(§3) Each mouse was weighed and sacrificed. After the tumor was completely stripped off from the body of the mouse, the non-tumor tissues such as blood stains and fat were removed to weigh the tumor and calculate the tumor growth inhibition rate. The average tumor weight of each group of mice is used as an indicator of efficacy. Tumor growth inhibition rate (%)=(1−the average tumor weight of the treatment group/the average tumor weight of the model group)×100%.

[3] = test system: transplanted tumor of human renal clear cell adenocarcinoma cell 786-O; assay: 786-O transplanted tumor in nude mice; conditions: for Tumor Volume (mm3) (d 1): d1
Protocol: as §1, with “786-O cells in a logarithmic growth phase were taken and subjected to a trypan blue exclusion experiment showing that the cell viability was more than 95%, then the cells were subjected to trypsinization, centrifugation, and supernatant removal. Then” for “Then”, “group: a model group, a cyclophosphamide group,” for “group:”
as §2, §3

[4] = HT-29, high dose (100 mg/kg in method) i.g. 30 days
[5] = HT-29, low dose (25 mg/kg in method) i.g. 30 days
[6] = HT-29, medium dose (50 mg/kg in method) i.g. 30 days
[7] = 786-O, high dose (100 mg/kg in method) i.g. 30 days
[8] = 786-O, low dose (25 mg/kg in method) i.g. 30 days
[9] = 786-O, medium dose (50 mg/kg in method) i.g. 30 days

`CO[C@@H]1[C@@H](O[C@@H]2O[C@H](C)[C@@H](O[C@H]3C[C@@](C)(O)[C@@H](OC(=O)CC(C)C)[C@H](C)O3)[C@H](N(C)C)[C@H]2O)[C@@H](CC=O)C[C@@H](C)[C@@H](O[C@H]2CC[C@H](N(C)C)[C@@H](C)O2)/C=C/C=C/C[C@@H](C)OC(=O)C[C@H]1O` [Isovaleryl spiramycin I, isovaleryl spiramycin I] was tested, and the “growth of H22 liver cancer in mice” value ([1]; 13, 26 and 52 mg/kg i.g. 7 days) was “significantly inhibit”, the “Relative Tumor Proliferation Rate (T/C)” value ([1]; dose 12.5 mg/kg) was 54.47 and the “Relative Tumor Volume (RTV)” value ([1]; dose 12.5 mg/kg) was 5.41 ± 1.42. The “Tumor Volume (mm3) (d 1)” value ([1]; dose 12.5 mg/kg) was 120.26 ± 24.42 mm3, the “Tumor Volume (mm3) (d30)” value ([1]; dose 12.5 mg/kg) was 657.57 ± 231.56 mm3 and the “Inhibition Rate (%)” value ([1]; dose 13 mg/kg) was 42.11%. For the same compound, the “Tumor” value ([1]; dose 13 mg/kg) was 0.88 ± 0.38 g, the “Relative Tumor Proliferation Rate (T/C)” value ([1]; dose 25 mg/kg) was 48.27 and the “Relative Tumor Volume (RTV)” value ([1]; dose 25 mg/kg) was 4.79 ± 0.64. For the same compound, the “Tumor Volume (mm3) (d 1)” value ([1]; dose 25 mg/kg) was 118.32 ± 11.90 mm3, the “Tumor Volume (mm3) (d30)” value ([1]; dose 25 mg/kg) was 563.69 ± 463.08 mm3 and the “Inhibition Rate (%)” value ([1]; dose 26 mg/kg) was 55.26%. The “Tumor” value ([1]; dose 26 mg/kg) was 0.68 ± 0.24 g, the “Relative Tumor Proliferation Rate (T/C)” value ([1]; dose 50 mg/kg) was 29.78 and the “Relative Tumor Volume (RTV)” value ([1]; dose 50 mg/kg) was 2.96 ± 0.39. The “Tumor Volume (mm3) (d 1)” value ([1]; dose 50 mg/kg) was 120.68 ± 13.76 mm3, the “Tumor Volume (mm3) (d30)” value ([1]; dose 50 mg/kg) was 359.74 ± 480.81 mm3 and the “Inhibition Rate (%)” value ([1]; dose 52 mg/kg) was 65.79%. For the same compound, the “Tumor” value ([1]; dose 52 mg/kg) was 0.52 ± 0.68 g, the “Body Weight (g) (d1)” value ([1]; 13 mg/kg) was 24.55 ± 1.00 g and the “Body Weight (g) (d 7)” value ([1]; 13 mg/kg) was 26.23 ± 0.79 g. The “Body Weight (g) (d1)” value ([1]; 26 mg/kg) was 23.83 ± 2.36 g, the “Body Weight (g) (d 7)” value ([1]; 26 mg/kg) was 26.68 ± 1.85 g and the “Body Weight (g) (d1)” value ([1]; 52 mg/kg) was 24.02 ± 2.83 g. For the same compound, the “Body Weight (g) (d 7)” value ([1]; 52 mg/kg) was 27.87 ± 1.57 g, the “Relative Tumor Proliferation Rate (T/C)” value [2, 4] was 29.11% and the “tumor growth inhibition rate” value [2, 4] was 70.14%. For the same compound, the “Relative Tumor Proliferation Rate (T/C)” value [2, 5] was 81.60%, the “tumor growth inhibition rate” value [2, 5] was 16.10% and the “tumor volume and relative tumor volume compared with the model group” value ([2]; HT-29, low, medium and high doses, P<0.05) was “significantly lower”. For the same compound, the “Relative Tumor Proliferation Rate (T/C)” value [2, 6] was 49.22%, the “tumor growth inhibition rate” value [2, 6] was 49.72% and the “Inhibition Rate (%)” value ([2]; 25 mg/kg) was 16.10%. For the same compound, the “Tumor Weight” value ([2]; 25 mg/kg) was 1.97 ± 0.31 g, the “Inhibition Rate (%)” value ([2]; 50 mg/kg) was 49.72% and the “Tumor Weight” value ([2]; 50 mg/kg) was 1.18 ± 0.34 g. For the same compound, the “Inhibition Rate (%)” value ([2]; 100 mg/kg) was 70.14%, the “Tumor Weight” value ([2]; 100 mg/kg) was 0.70 ± 0.29 g and the “Relative Tumor Proliferation Rate (T/C)” value ([2]; dose 25 mg/kg) was 81.60%. The “Relative Tumor Volume (RTV)” value ([2]; dose 25 mg/kg) was 11.76 ± 4.03, the “Tumor Volume (mm3) (d 1)” value ([2]; dose 25 mg/kg) was 162.77 ± 38.95 mm3 and the “Tumor Volume (mm3) (d30)” value ([2]; dose 25 mg/kg) was 1803.98 ± 271.55 mm3. For the same compound, the “Relative Tumor Proliferation Rate (T/C)” value ([2]; dose 50 mg/kg) was 49.22%, the “Relative Tumor Volume (RTV)” value ([2]; dose 50 mg/kg) was 7.09 ± 1.47 and the “Tumor Volume (mm3) (d 1)” value ([2]; dose 50 mg/kg) was 157.41 ± 37.31 mm3. The “Tumor Volume (mm3) (d30)” value ([2]; dose 50 mg/kg) was 1109.16 ± 320.27 mm3, the “Relative Tumor Proliferation Rate (T/C)” value ([2]; dose 100 mg/kg) was 29.11% and the “Relative Tumor Volume (RTV)” value ([2]; dose 100 mg/kg) was 4.19 ± 2.23. For the same compound, the “Tumor Volume (mm3) (d 1)” value ([2]; dose 100 mg/kg) was 169.25 ± 35.39 mm3, the “Tumor Volume (mm3) (d30)” value ([2]; dose 100 mg/kg) was 648.93 ± 198.53 mm3 and the “mouse weight compared with the model group” value ([2]; mouse, in vivo) was “no significant changes”. The “Body Weight (g) (d1)” value ([2]; mouse, in vivo, 25 mg/kg) was 21.41 ± 1.41 g, the “Body Weight (g) (d30)” value ([2]; mouse, in vivo, 25 mg/kg) was 20.98 ± 0.99 g and the “Body Weight (g) (d1)” value ([2]; mouse, in vivo, 50 mg/kg) was 21.31 ± 1.53 g. The “Body Weight (g) (d30)” value ([2]; mouse, in vivo, 50 mg/kg) was 20.56 ± 1.09 g, the “Body Weight (g) (d1)” value ([2]; mouse, in vivo, 100 mg/kg) was 20.77 ± 1.13 g and the “Body Weight (g) (d30)” value ([2]; mouse, in vivo, 100 mg/kg) was 21.19 ± 1.26 g. For the same compound, the “Inhibition Rate (%)” value ([3]; 786-O nude mice, 25 mg/kg) was 34.70%, the “Relative Tumor Proliferation Rate (T/C)” value ([3]; 786-O nude mice, 25 mg/kg) was 37.88% and the “Relative Tumor Volume (RTV)” value ([3]; 786-O nude mice, 25 mg/kg) was 6.99 ± 0.83. The “Tumor Weight” value ([3]; 786-O nude mice, 25 mg/kg) was 1.40 ± 0.40 g, the “Tumor Volume (mm3) (d 1)” value ([3]; 786-O nude mice, 25 mg/kg) was 96.85 ± 9.98 mm3 and the “Tumor Volume (mm3) (d30)” value ([3]; 786-O nude mice, 25 mg/kg) was 677.21 ± 58.76 mm3. For the same compound, the “Inhibition Rate (%)” value ([3]; 786-O nude mice, 50 mg/kg) was 39.22%, the “Relative Tumor Proliferation Rate (T/C)” value ([3]; 786-O nude mice, 50 mg/kg) was 37.19% and the “Relative Tumor Volume (RTV)” value ([3]; 786-O nude mice, 50 mg/kg) was 6.86 ± 1.01. The “Tumor Weight” value ([3]; 786-O nude mice, 50 mg/kg) was 1.31 ± 0.35 g, the “Tumor Volume (mm3) (d 1)” value ([3]; 786-O nude mice, 50 mg/kg) was 96.82 ± 8.52 mm3 and the “Tumor Volume (mm3) (d30)” value ([3]; 786-O nude mice, 50 mg/kg) was 664.44 ± 73.49 mm3. For the same compound, the “Inhibition Rate (%)” value ([3]; 786-O nude mice, 100 mg/kg) was 64.36%, the “Relative Tumor Proliferation Rate (T/C)” value ([3]; 786-O nude mice, 100 mg/kg) was 36.87% and the “Relative Tumor Volume (RTV)” value ([3]; 786-O nude mice, 100 mg/kg) was 6.81 ± 0.31. For the same compound, the “Tumor Weight” value ([3]; 786-O nude mice, 100 mg/kg) was 0.76 ± 0.13 g, the “Tumor Volume (mm3) (d 1)” value ([3]; 786-O nude mice, 100 mg/kg) was 103.25 ± 9.71 mm3 and the “Tumor Volume (mm3) (d30)” value ([3]; 786-O nude mice, 100 mg/kg) was 702.74 ± 37.66 mm3. The “Relative Tumor Proliferation Rate (T/C)” value [3, 7] was 36.89%, the “tumor growth inhibition rate” value [3, 7] was 64.36% and the “Relative Tumor Proliferation Rate (T/C)” value [3, 8] was 37.88%. The “tumor growth inhibition rate” value [3, 8] was 34.70%, the “tumor volume and relative tumor volume compared with the model group” value ([3]; 786-O, low, medium and high doses, P<0.05) was “significantly lower” and the “Relative Tumor Proliferation Rate (T/C)” value [3, 9] was 37.19%. For the same compound, the “tumor growth inhibition rate” value [3, 9] was 39.22%, the “mouse weight compared with the model group” value ([3]; mouse, in vivo) was “no significant changes” and the “Body Weight (g) (d1)” value ([3]; mouse, in vivo, 25 mg/kg) was 21.87 ± 0.89 g. For the same compound, the “Body Weight (g) (d30)” value ([3]; mouse, in vivo, 25 mg/kg) was 22.95 ± 0.88 g, the “Body Weight (g) (d1)” value ([3]; mouse, in vivo, 50 mg/kg) was 22.00 ± 0.94 g and the “Body Weight (g) (d30)” value ([3]; mouse, in vivo, 50 mg/kg) was 22.82 ± 0.64 g. For the same compound, the “Body Weight (g) (d1)” value ([3]; mouse, in vivo, 100 mg/kg) was 21.88 ± 0.54 g and the “Body Weight (g) (d30)” value ([3]; mouse, in vivo, 100 mg/kg) was 23.00 ± 0.67 g.
